Assay results: patent publication US20250388589A1, “TRICYCLIC HETEROCYCLIC DERIVATIVES, COMPOSITIONS AND USES THEREOF” (Danatlas Pharmaceuticals Co., Ltd., priority 2022, published 2025)

Assays:
Kuramochi cell line = experiment: Cell Viability Assay (Cell Titer-Glo, 7 days); format: cell-based; settings: 168 h, Kuramochi cells, 7 days incubation, read-out: PARG Cell viability (IC50)
Summary of the method: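 Kuramochi cells in RPMI with 10% FBS, seeded at 400 cells/well, were treated with a 9-point 3-fold dilution series in duplicate for 7 days at 37 °C, 5% CO2. Viability by CellTiter-Glo luminescence, normalised to DMSO and medium-only controls; IC50 from 4-parameter Hill fit.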

[1] = target: hPARG (C-terminal His6-tag) (Homo sapiens (Human), UniProt Q86W56); experiment: PARG Enzymatic Activity Assay (HTRF); format: biochemical; settings: hPARG 65 pM final, biotinylated-NAD ribosylated PARP1 8 nM final
hPARG (C-terminal His6-tag), sequence (Q86W56 whole entry): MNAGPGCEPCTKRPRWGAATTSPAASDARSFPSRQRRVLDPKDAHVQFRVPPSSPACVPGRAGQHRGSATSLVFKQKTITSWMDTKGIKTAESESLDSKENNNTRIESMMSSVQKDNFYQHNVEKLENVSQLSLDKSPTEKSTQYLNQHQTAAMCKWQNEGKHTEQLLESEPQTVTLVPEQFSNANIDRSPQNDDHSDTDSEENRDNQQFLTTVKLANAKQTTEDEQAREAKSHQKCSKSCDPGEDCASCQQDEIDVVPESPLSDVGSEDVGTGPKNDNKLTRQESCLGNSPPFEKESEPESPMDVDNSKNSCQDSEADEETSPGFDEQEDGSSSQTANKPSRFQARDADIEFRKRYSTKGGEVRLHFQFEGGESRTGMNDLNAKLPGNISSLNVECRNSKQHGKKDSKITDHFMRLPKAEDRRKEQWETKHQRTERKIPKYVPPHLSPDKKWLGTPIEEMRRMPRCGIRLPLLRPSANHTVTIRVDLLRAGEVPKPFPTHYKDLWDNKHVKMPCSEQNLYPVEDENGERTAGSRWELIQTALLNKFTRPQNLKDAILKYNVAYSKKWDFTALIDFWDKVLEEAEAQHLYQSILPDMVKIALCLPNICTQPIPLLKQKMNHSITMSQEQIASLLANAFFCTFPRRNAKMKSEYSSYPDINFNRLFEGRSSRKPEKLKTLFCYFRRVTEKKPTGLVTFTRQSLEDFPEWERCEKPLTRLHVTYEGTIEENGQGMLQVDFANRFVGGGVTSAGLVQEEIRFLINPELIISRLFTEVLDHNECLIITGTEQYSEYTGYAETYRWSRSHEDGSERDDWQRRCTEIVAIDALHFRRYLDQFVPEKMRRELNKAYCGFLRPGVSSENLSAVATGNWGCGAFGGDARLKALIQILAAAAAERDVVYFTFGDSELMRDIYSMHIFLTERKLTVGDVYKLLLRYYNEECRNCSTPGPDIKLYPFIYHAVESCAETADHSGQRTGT
Summary of the method: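 E. coli-expressed enzyme (65 pM final) preincubated 60 min RT with compounds (10-point 4-fold dilution, duplicate) in 50 mM Tris pH 7.4, 3 mM EDTA, 1 mM DTT, 50 mM KCl, 0.01% Tween 20. Biotinylated-NAD ribosylated PARP1 substrate (8 nM final) reacted 10 min RT; Eu-streptavidin/anti-6HIS-XL665 HTRF read 665/620 nm after 60 min. IC50 from 4-parameter Hill fit.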

Row | Structure (SMILES) | IC50 (Kuramochi cell line) [µM] | IC50 [1] [µM]
1 | CC(C)C(=O)N1[C@H](C)CN(c2ncnc3c2c2ccc(S(=O)(=O)NC4(C)CC4)cc2n3-c2nnc(C(F)F)s2)C[C@@H]1C [Example 190, 9-(5-(Difluoromethyl)-1,3,4-thiadiazol-2-yl)-4-((3R,5S)-4-isobutyryl-3,5-dimethylpiperazin-1-yl)-N-(1-methylcyclopropyl)-9H-pyrimido[4,5-b]indole-7-sulfonamide] | < 0.1 | < 0.1
2 | N#CC1(NS(=O)(=O)c2ccc3c4c(C5CCC(O)CC5)ncnc4n(-c4nnc(C(F)F)s4)c3c2)CC1 (stereo not shown) [Example 85, N-(1-Cyanocyclopropyl)-9-(5-(difluoromethyl)-1,3,4-thiadiazol-2-yl)-4-(4-hydroxycyclohexyl)-9H-pyrimido[4,5-b]indole-7-sulfonamide] | < 0.1 | < 0.1
3 | N#CC1(NS(=O)(=O)c2ccc3c4c(N5CCC(N6CCCC6)[C@@H](F)C5)ncnc4n(-c4nnc(C(F)F)s4)c3c2)CC1 (stereo partly drawn) [Example 207, N-(1-Cyanocyclopropyl)-9-(5-(difluoromethyl)-1,3,4-thiadiazol-2-yl)-4-((3S)-3-fluoro-4-(pyrrolidin-1-yl)piperidin-1-yl)-9H-pyrimido[4,5-b]indole-7-sulfonamide] | < 0.1 | < 0.1
4 | COC[C@H]1CN(c2ncnc3c2c2ccc(S(=O)(=O)NC4(C#N)CC4)cc2n3-c2nnc(C(F)F)s2)CCN1C [Example 204, (R)—N-(1-Cyanocyclopropyl)-9-(5-(difluoromethyl)-1,3,4-thiadiazol-2-yl)-4-(3-(methoxymethyl)-4-methylpiperazin-1-yl)-9H-pyrimido[4,5-b]indole-7-sulfonamide] | < 0.1 | < 0.1
5 | N#CC1(NS(=O)(=O)c2ccc3c4c(N5CCC(O)(C(F)(F)F)CC5)ncnc4n(-c4nnc(C(F)F)s4)c3c2)CC1 [Example 191, N-(1-Cyanocyclopropyl)-9-(5-(difluoromethyl)-1,3,4-thiadiazol-2-yl)-4-(4-hydroxy-4-(trifluoromethyl)piperidin-1-yl)-9H-pyrimido [4,5-b]indole-7-sulfonamide] | < 0.1 | < 0.1
6 | N#CC1(NS(=O)(=O)c2ccc3c4c(N5CCN(C(=O)N6CCCC6)CC5)ncnc4n(-c4nnc(C(F)F)s4)c3c2)CC1 [Example 41, N-(1-Cyanocyclopropyl)-9-(5-(difluoromethyl)-1,3,4-thiadiazol-2-yl)-4-(4-(pyrrolidine-1-carbonyl)piperazin-1-yl)-9H-pyrimido[4,5-b]indole-7-sulfonamide] | < 0.1 | < 0.1
7 | CC(C)c1nnc(-n2c3cc(S(=O)(=O)NC4(C#N)CC4)ccc3c3c(N4CCN(C(=O)C5CC5)CC4)ncnc32)s1 [Example 186, N-(1-Cyanocyclopropyl)-4-(4-(cyclopropanecarbonyl)piperazin-1-yl)-9-(5-isopropyl-1,3,4-thiadiazol-2-yl)-9H-pyrimido[4,5-b]indole-7-sulfonamide] | 0.1 to 1 | 0.1 to 1
8 | N#CC1(NS(=O)(=O)c2ccc3c4c(C5CCN(C(=O)[C@@H]6CCCN6)CC5)ncnc4n(-c4nnc(C(F)F)s4)c3c2)CC1 [Example 124, (S)—N-(1-Cyanocyclopropyl)-9-(5-(difluoromethyl)-1,3,4-thiadiazol-2-yl)-4-(1-prolylpiperidin-4-yl)-9H-pyrimido[4,5-b]indole-7-sulfonamide] | 0.1 to 1 | < 0.1
9 | CCS(=O)(=O)N1CCC(c2ncnc3c2c2ccc(S(=O)(=O)NC4(C#N)CC4)cc2n3-c2nnc(C(F)F)s2)CC1 [Example 122, N-(1-Cyanocyclopropyl)-9-(5-(difluoromethyl)-1,3,4-thiadiazol-2-yl)-4-(1-(ethylsulfonyl)piperidin-4-yl)-9H-pyrimido[4,5-b]indole-7-sulfonamide] | < 0.1 | < 0.1
10 | CO[C@@H](C)C(=O)N1CCC(c2ncnc3c2c2ccc(S(=O)(=O)NC4(C)CC4)cc2n3-c2nnc(C(F)F)s2)CC1 [Example 96, (S)-9-(5-(Difluoromethyl)-1,3,4-thiadiazol-2-yl)-4-(1-(2-methoxypropanoyl)piperidin-4-yl)-N-(1-methylcyclopropyl)-9H-pyrimido[4,5-b]indole-7-sulfonamide] | < 0.1 | < 0.1
11 | N#CC1(NS(=O)(=O)c2ccc3c4c(C5CCOCC5)ncnc4n(-c4nnc(C(F)F)s4)c3c2)CC1 [Example 79, N-(1-Cyanocyclopropyl)-9-(5-(difluoromethyl)-1,3,4-thiadiazol-2-yl)-4-(tetrahydro-2H-pyran-4-yl)-9H-pyrimido[4,5-b]indole-7-sulfonamide] | < 0.1 | < 0.1
12 | N#CC1(NS(=O)(=O)c2ccc3c4c(N5C[C@H]6C[C@@H]5CO6)ncnc4n(-c4nnc(C(F)F)s4)c3c2)CC1 [Example 202, 4-((1R,4R)-2-Oxa-5-azabicyclo[2.2.1]heptan-5-yl)-N-(1-cyanocyclopropyl)-9-(5-(difluoromethyl)-1,3,4-thiadiazol-2-yl)-9H-pyrimido[4,5-b]indole-7-sulfonamide] | < 0.1 | < 0.1
13 | CC(C)C(=O)N1C[C@@H](C)N(c2ncnc3c2c2ccc(S(=O)(=O)NC4(C#N)CC4)cc2n3-c2nnc(C(F)F)s2)C[C@@H]1C [Example 33, N-(1-Cyanocyclopropyl)-9-(5-(difluoromethyl)-1,3,4-thiadiazol-2-yl)-4-((2R,5S)-4-isobutyryl-2,5-dimethylpiperazin-1-yl)-9H-pyrimido[4,5-b]indole-7-sulfonamide] | < 0.1 | < 0.1
14 | CC(C)[S+]([O-])N1CCN(c2ncnc3c2c2ccc(S(=O)(=O)NC4(C#N)CC4)cc2n3-c2nnc(C(F)F)s2)CC1 (stereo not shown) [Example 69, N-(1-Cyanocyclopropyl)-9-(5-(difluoromethyl)-1,3,4-thiadiazol-2-yl)-4-(4-(isopropylsulfinyl)piperazin-1-yl)-9H-pyrimido[4,5-b]indole-7-sulfonamide] | < 0.1 | < 0.1
15 | N#CC1(NS(=O)(=O)c2ccc3c4c(N5CCN(C(=O)C6CCOC6)CC5)ncnc4n(-c4nnc(C(F)F)s4)c3c2)CC1 (stereo not shown) [Example 34, N-(1-Cyanocyclopropyl)-9-(5-(difluoromethyl)-1,3,4-thiadiazol-2-yl)-4-(4-(tetrahydrofuran-3-carbonyl)piperazin-1-yl)-9H-pyrimido[4,5-b]indole-7-sulfonamide] | < 0.1 | < 0.1
16 | CN(C)C(=O)N1CCC(c2ncnc3c2c2ccc(S(=O)(=O)NC4(C)CC4)cc2n3-c2nnc(C(F)F)s2)CC1 [Example 153, 4-(9-(5-(Difluoromethyl)-1,3,4-thiadiazol-2-yl)-7-(N-(1-methylcyclopropyl)sulfamoyl)-9H-pyrimido[4,5-b]indol-4-yl)-N,N-dimethylpiperidine-1-carboxamide] | < 0.1 | < 0.1
17 | CN1CC(C(=O)N2CCN(c3ncnc4c3c3ccc(S(=O)(=O)NC5(C#N)CC5)cc3n4-c3nnc(C(F)F)s3)CC2)C1 [Example 65, N-(1-Cyanocyclopropyl)-9-(5-(difluoromethyl)-1,3,4-thiadiazol-2-yl)-4-(4-(1-methylazetidine-3-carbonyl)piperazin-1-yl)-9H-pyrimido [4,5-b]indole-7-sulfonamide] | 0.1 to 1 | < 0.1
18 | C[C@@H]1CN(C(=O)N(C)C)CCN1c1ncnc2c1c1ccc(S(=O)(=O)NC3(C#N)CC3)cc1n2-c1nnc(C(F)F)s1 [Example 73, (R)-4-(7-(N-(1-Cyanocyclopropyl)sulfamoyl)-9-(5-(difluoromethyl)-1,3,4-thiadiazol-2-yl)-9H-pyrimido[4,5-b]indol-4-yl)-N,N,3-trimethylpiperazine-1-carboxamide] | < 0.1 | < 0.1
19 | CCC(=O)N1CCC(c2ncnc3c2c2ccc(S(=O)(=O)NC4(C#N)CC4)cc2n3-c2nnc(C(F)F)s2)CC1 [Example 120, N-(1-cyanocyclopropyl)-9-(5-(difluoromethyl)-1,3,4-thiadiazol-2-yl)-4-(1-propionylpiperidin-4-yl)-9H-pyrimido[4,5-b]indole-7-sulfonamide] | < 0.1 | < 0.1
20 | N#CC1(NS(=O)(=O)c2ccc3c4c(N5CCN6CCOC[C@H]6C5)ncnc4n(-c4nnc(C(F)F)s4)c3c2)CC1 [Example 161, (R)-N-(1-cyanocyclopropyl)-9-(5-(difluoromethyl)-1,3,4-thiadiazol-2-yl)-4-(hexahydropyrazino[2,1-c][1,4]oxazin-8(1H)-yl)-9H-pyrimido[4,5-b]indole-7-sulfonamide] | < 0.1 | < 0.1
21 | CN1CCN(C(=O)N2CCC(c3ncnc4c3c3ccc(S(=O)(=O)NC5(C#N)CC5)cc3n4-c3nnc(C(F)F)s3)CC2)CC1 [Example 141, N-(1-cyanocyclo-propyl)-9-(5-(difluoromethyl)-1,3,4-thiadiazol-2-yl)-4-(1-(4-methylpiperazine-1-carbonyl)piperidin-4-yl)-9H-pyrimido [4,5-b]indole-7-sulfonamide] | 0.1 to 1 | < 0.1
22 | N#CC1(NS(=O)(=O)c2ccc3c4c(C5CCN(C(=O)C6COC6)CC5)ncnc4n(-c4nnc(C(F)F)s4)c3c2)CC1 [Example 113, N-(1-cyanocyclopropyl)-9-(5-(difluoromethyl)-1,3,4-thiadiazol-2-yl)-4-(1-(oxetane-3-carbonyl)piperidin-4-yl)-9H-pyrimido[4,5-b]indole-7-sulfonamide] | < 0.1 | < 0.1
23 | N#CC1(NS(=O)(=O)c2ccc3c4c(N5C6CCC5COC6)ncnc4n(-c4nnc(C(F)F)s4)c3c2)CC1 [Example 210, 4-(3-Oxa-8-azabicyclo[3.2.1]octan-8-yl)-N-(1-cyanocyclopropyl)-9-(5-(difluoromethyl)-1,3,4-thiadiazol-2-yl)-9H-pyrimido[4,5-b]indole-7-sulfonamide] | < 0.1 | < 0.1
